Measurements: US11077100B2, “Tetrahydroquinoline derivatives as P2X7 receptor antagonists” (RaQualia Pharma Inc., priority 2017, dated 2021)

Biological target: human P2X7 (Homo sapiens (Human), UniProt Q99572)
Assay: Human P2X7 functional assay (Ca2+ influx, Fluo-4, FDSS)
Assay type: cell-based
Conditions: antagonistic activity with respect to the human P2X7 receptor; BzATP final concentration 80 microM
Protocol: The ability of the 5,6,7,8-tetrahydroquinoline and 6,7-dihydro-5H-cyclopenta[b]pyridine derivatives of the formula (I) to inhibit the P2X7 channel was measured by Ca^2+ influx assay and electrophysiology assay described below.
Human P2X7 Functional Assay
The functional activity of compounds was determined by measuring changes in intracellular calcium concentration using a Ca^2+-sensitive fluorescent dye, Fluo-4 (Molecular Probes). The changes in fluorescent signal were monitored by the cell imaging technology by Hamamatsu Photonics's Functional Drug Screening System (FDSS). Increases in intracellular Ca^2+ concentration were readily detected upon activation with BzATP.
HEK293 cells stably expressing human P2X7 (GenBank accession number BC011913) carrying a C-terminal FLAG tag were grown in T225 flasks, in a 5% CO2 humidified incubator to about 80% confluence. Media composition consisted of Dulbecco's Modified Eagle Medium (high glucose), 10% fetal bovine serum ([…]), 100 units/[…] Penicillin, 100 microg/mL Streptomycin and 250 microg/mL Geneticine.
1. Plate-out HEK293-human P2X7 cells (40 microL medium containing 10,000 cells per well) into poly-D-lysine coated 384-well plates (Corning) at 24 h prior to assay.
2. Incubate at 37° C. in 5% CO2.
3. Incubate the plate at 37° C. in 5% CO2 for 1 h.
5. Test compounds were prepared at 100× the test concentration in DMSO by serial dilution with Biomek-FX liquid handling instrument. 33× diluted compound solutions in assay buffer were prepared in intermediate compound plate with Biomek-NX liquid handling instrument. A further 3× dilution occurred in below steps 6 and 7.
6. Add 20 microL of 33× diluted compound solutions into each well and leave the plate for 10 min under the dark at room temperature.
7. Measure activity by FDSS as follows: • Set the assay plate on the stacker of FDSS. • Start the detection of fluorescence intensity at 540 nm by 480 nm exicitation. • After 30 seconds, add 20 microL of assay buffer containing 240 microM BzATP (final concentration 80 microM).
IC50 values for compounds of the present invention were determined from 7-point dose-response studies. Curves were generated using the average of duplicate wells for each data point. Finally, the IC50 values are calculated with the best-fit dose curve determined by XLfit (ID Business Solutions Ltd.).

Sequence of human P2X7 (Q99572 whole entry): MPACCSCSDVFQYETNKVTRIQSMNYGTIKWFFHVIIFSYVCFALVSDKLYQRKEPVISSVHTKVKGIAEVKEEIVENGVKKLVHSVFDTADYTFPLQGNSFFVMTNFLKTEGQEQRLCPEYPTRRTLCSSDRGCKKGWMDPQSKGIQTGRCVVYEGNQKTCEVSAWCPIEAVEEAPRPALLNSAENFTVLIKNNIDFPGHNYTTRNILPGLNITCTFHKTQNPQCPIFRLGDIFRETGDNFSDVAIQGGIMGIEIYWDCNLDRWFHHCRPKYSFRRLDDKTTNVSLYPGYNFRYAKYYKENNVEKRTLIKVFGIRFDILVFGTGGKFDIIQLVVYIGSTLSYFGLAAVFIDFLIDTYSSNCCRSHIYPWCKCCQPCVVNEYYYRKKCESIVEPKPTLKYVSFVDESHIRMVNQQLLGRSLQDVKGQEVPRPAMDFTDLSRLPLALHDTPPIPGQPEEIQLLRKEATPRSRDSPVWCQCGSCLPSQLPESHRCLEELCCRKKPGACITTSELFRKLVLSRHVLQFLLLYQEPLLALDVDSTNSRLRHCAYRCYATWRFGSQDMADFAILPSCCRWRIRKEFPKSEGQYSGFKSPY

Row | SMILES | IC50 [nM]
1 | O=C(NCc1ccc(F)cc1C(F)(F)F)[C@H]1CC[C@H](O)c2ncccc21 [Example 75, (5S,8S)-N-(4-fluoro-2-(tri-fluoromethyl)benzyl)-8-hydroxy-5,6,7,8-tetra-hydroquinoline-5-carbox-amide] | 1000 to 3000
2 | O=C(NCc1ccc(F)c(F)c1F)[C@@H]1CC[C@@H](O)c2ncccc21 [Example 93, (5R,8R)-8-hydroxy-N-(2,3,4-trifluorobenzyl)-5,6,7,8-tetrahydroquinoline-5-carboxamide] | 1000 to 3000
3 | O=C(NCc1ccc(Cl)cc1C(F)(F)F)[C@@]1(F)CC[C@@H](O)c2ncccc21 [Example 156, (5R,8R)-N-(4-chloro-2-(trifluoromethyl)benzyl)-5-fluoro-8-hydroxy-5,6,7,8-tetrahydroquinoline-5-carboxamide] | 101 to 300
4 | CC(C)(C)CCNC(=O)[C@]1(F)CC[C@H](O)c2ncccc21 [Example 227, (5S,8S)-N-(3,3-dimethylbutyl)-5-fluoro-8-hydroxy-5,6,7,8-tetrahydroquinoline-5-carboxamide] | 1000 to 3000
5 | COc1ccc(CNC(=O)[C@]2(F)CC[C@H](O)c3ncccc32)c(C(F)(F)F)c1 [Example 211, (5S,8S)-5-fluoro-8-hydroxy-N-(4-methoxy-2-(trifluoromethyl)benzyl)-5,6,7,8-tetrahydroquinoline-5-carboxamide] | 101 to 300
6 | COc1cccc(Cl)c1CNC(=O)[C@]1(F)CC[C@H](O)c2ncccc21 [Example 198, (5S,8S)-N-(2-chloro-6-methoxybenzyl)-5-fluoro-8-hydroxy-5,6,7,8-tetrahydroquinoline-5-carboxamide] | < 50
7 | Cc1cccc(Cl)c1CNC(=O)[C@@]1(F)CC[C@@H](O)c2ncccc21 [Example 160, (5R,8R)-N-(2-chloro-6-methylbenzyl)-5-fluoro-8-hydroxy-5,6,7,8-tetrahydroquinoline-5-carboxamide] | 101 to 300
8 | O=C(NCc1c(Cl)ccc(Cl)c1Cl)[C@]1(F)CC[C@@H](O)c2ncccc21 [Example 124, (5S,8R)-5-fluoro-8-hydroxy-N-(2,3,6-trichlorobenzyl)-5,6,7,8,- tetrahydroquinoline-5-carboxamide] | 101 to 300
9 | O=C(N[C@H]1CCC[C@@H]1OCc1ccccc1)[C@]1(F)CC[C@H](O)c2ncccc21 [Example 225, (5S,8S)-N-((1S,2S)-2-(benzyloxy)cyclopentyl)-5-fluoro-8-hydroxy-5,6,7,8-tetrahydroquinoline-5-carboxamide] | 301 to 1000
10 | Cc1ccc(CNC(=O)[C@@]2(F)CC[C@@H](O)c3ncccc32)c(Cl)c1 [Example 166, (5R,8R)-N-(2-chloro-4-methylbenzyl)-5-fluoro-8-hydroxy-5,6,7,8-tetrahydroquinoline-5-carboxamide] | 101 to 300
11 | O=C(NCc1ccc(F)c(Cl)c1)[C@]1(F)CC[C@H](O)c2ncccc21 [Example 188, (5S,8S)-N-(3-chloro-4-fluorobenzyl)-5-fluoro-8-hydroxy-5,6,7,8-tetrahydroquinoline-5-carboxamide] | < 50
12 | O=C1CC(C(=O)NCc2cccc(C(F)(F)F)c2Cl)c2cccnc21 (stereo not drawn) [Example 17, N-(2-chloro-3-(trifluoromethyl)benzyl)-7-oxo-6,7-dihydro-5H-cyclopenta[b] pyridine-5-carboxamide] | 50 to 100
13 | O=C(NCCc1ccc(Cl)cc1Cl)[C@]1(F)CC[C@@](O)(CO)c2ncccc21 [Example 330, (5S,8S)-N-(2,4-dichlorophenethyl)-5-fluoro-8-hydroxy-8-(hydroxymethyl)-5,6,7,8-tetrahydroquinoline-5-carboxamide] | 301 to 1000
14 | O=C(NCc1ccc(Cl)cc1F)[C@@H]1CC[C@@H](O)c2ncccc21 [Example 95, (5R,8R)-N-(4-chloro-2-fluorobenzyl)-8-hydroxy-5,6,7,8-tetrahydroquinoline-5-carboxamide] | 1000 to 3000
15 | O=C(NCc1c(F)cc(Cl)cc1Cl)[C@H]1CC[C@H](O)c2ncccc21 [Example 69, (5S,8S)-N-(2,4-dichloro-6-fluorobenzyl)-8-hy-droxy-5,6,7,8-tetrahydro-quinoline-5-carboxamide] | 301 to 1000
